“And” between values parts separate entries of the source, which are not always exact repeats. Equal values may be shown once. The source made the active and inactive calls.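 Rule for the calls: active = AC50 no more than tenfold above the top dose tested, or full inhibition at every dose with a flat fit (cut at about 19 µM in these data); inconclusive = flat curve fit with inhibition between 30% and 70%, or poor fit; inactive = AC50 more than tenfold above the top dose tested.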
System: HMLE_sh_eGFP viability, CellTiter-Glo luminescence, 72 h
Assay: cytotoxicity in HMLE control line with eGFP shRNA, dose response, counter-screen for HMLE_sh_ECad selective toxicity project, cell-based, HMLE_sh_eGFP, luminescence (AID 463074);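 note: counterscreen control line to flag general toxicity for the HMLE_sh_ECad screen; potency for loss of viability as luminescence drops below DMSO wells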

Row | SMILES | AC50
1 | CCc1ccc(N2C(=O)NC(=O)/C(=C\C=C\c3ccco3)C2=O)cc1 | 3.72 µM
2 | c1ccc(CNc2c(-c3cccc(SC4CCCCC4)c3)nc3ccccn23)cc1 | 3.6 µM
3 | O=C(Nc1cccc(Cl)c1)Nc1csc([N+](=O)[O-])c1 | 5.64 µM
4 | NCCc1ccc(OCc2ccccc2)c(OCc2ccccc2)c1 | 13.6 µM
5 | Cc1ccc(C)c(NC(=O)CSc2nc3nc(-c4cccs4)cc(C(F)(F)F)c3c(=O)[nH]2)c1 | 4.39 µM
6 | COc1cc(CNC2CCCC2)cc(Cl)c1OCc1ccccc1Cl | 6.95 µM
7 | Cc1cccc(-c2cc3nc(C)cc(N4CC(C)CC(C)C4)n3n2)c1 (configuration not stated) | 6.87 µM
8 | CCCC[C@@H](CN[C@H](C)CNC)NCC1CCC(C(C)(C)C)CC1 (some centres not stated) | 6.37 µM
9 | COc1cc(N=Nc2ccc3ccccc3c2)ccc1O | 6.43 µM
10 | COCCNc1cc(-c2ccccc2)nc2cc(-c3cccc(F)c3)nn12 | 13 µM
11 | O=C(NC(=O)N1CCN(c2cccc(Cl)c2)CC1)c1ccc(Cl)cc1 | 0.573 µM
12 | COc1ccc(/C=C/C(=O)c2ccccc2)cc1Cn1nnc2ccccc21 | 6.28 µM
13 | Cc1cc(Nc2cccc(Cl)c2)nc(NCc2ccccc2)n1 | 3.73 µM
14 | CS(=O)(=O)c1ncc(Cl)c(C(=O)Nc2ccc(N3CCOCC3)cc2)n1 | 6.81 µM
15 | CC1(C)CC[C@]2(CO)CC[C@]3(C)C(=CCC4[C@@]5(C)CC[C@H](O)[C@@](C)(CO)C5CC[C@]43C)[C@@H]2C1 (some centres not stated) | 3.97 µM
16 | c1ccc(-c2c(-c3ccccc3)n(Cc3ccco3)c3ncnc(NCCCn4ccnc4)c23)cc1 | 6.74 µM
17 | CC1=NN(c2ccccc2)C(=O)/C1=C\C=C\c1ccccc1 | 3.55 µM
18 | C[C@H]1[C@H](C)CC[C@]2(C)CC[C@]3(C)C(=CC(=O)C4[C@@]5(C)CC[C@H](O)C(C)(C)C5CC[C@]43C)[C@H]12 (some centres not stated) | 3.67 µM
19 | O=c1cc(N2CCCCC2)c(-c2ccccc2)nn1Cc1cccc(Cl)c1 | 4.56 µM
20 | O=C1NN(c2cccc(Br)c2)C(=O)/C1=C\c1ccccc1 | 6.97 µM
21 | O=C(Cn1ncc(Cl)c(Cl)c1=O)NCC1CCCCC1 | 5.74 µM
22 | CCOC(=O)c1cnc(-n2nc(C)cc2C)nc1NNc1cc(C)nc(-c2ccccc2)n1 | 2.97 µM
23 | O=Cc1cc2ccccc2nc1SCc1ccc(Cl)c(Cl)c1 | 6.37 µM
24 | C/C(=N\NC(=S)Nc1ccc(F)cc1)c1ccc2c(c1)OCCO2 | 2.36 µM
25 | CCC1CSC(Nc2ccc(C(=O)/C=C/c3ccc(Br)cc3)cc2)=N1 (configuration not stated) | 5.68 µM
26 | O=C(NC(=S)NCCc1ccccc1)C1CCCCC1 | 18.4 µM

Row | SMILES | AC50
27 | Cc1cccc(-n2ncc(Cl)c(Cl)c2=O)c1 | 4.52 µM
28 | ClC1=C(Cl)C2(Cl)C3C(Cl)C=CC3C1(Cl)C2(Cl)Cl (configuration not stated) | 6.29 µM
29 | Cc1cc(C)nc(NC(=O)c2ccc(COc3ccccc3Cl)cc2)c1 | 0.401 µM
30 | CCN(CC)S(=O)(=O)c1cccc(C(=O)N/N=C/c2cccc(O)c2O)c1 | 7.97 µM
31 | CCN(CC)Cc1c(O)ccc2c1O/C(=C\C=C\c1ccccc1)C2=O | 18.8 µM
32 | CCOC(=O)Nc1ccc(Cc2ccncc2)cc1 | > 19.5 µM (inactive)
33 | Cc1c(C2(O)CCCCC2)[nH]c2cc(C(F)(F)F)ccc12 | 5.83 µM
34 | Cc1cc(OCC(=O)Nc2ccc(S(=O)(=O)NC3=NCCCCC3)cc2)c(C(C)C)cc1Cl | 10.2 µM
35 | c1ccc2c(-c3ccc(OCCN4CCCCC4)cc3)c(-c3ccsc3)sc2c1 | 2.72 µM
36 | Cc1ccccc1CSc1ccc(-c2ccc3c(c2)OCO3)nn1 | 7.5 µM
37 | OCCNc1nc(Nc2ccc(Cl)c(Cl)c2)nc2ccccc12 | 6.96 µM
38 | Cn1c(-c2ccsc2)c(-c2cccs2)c2cc(Br)ccc21 | 5.92 µM
39 | Cn1cncc1C#Cc1c(-c2ccsc2)sc2ccccc12 | 7.26 µM
40 | COC(=O)c1c(-c2ccc(N(C)C)cc2)sc2ccc(OC)cc12 | > 19.5 µM (inactive)
41 | CCOC(=O)c1cnc2ccc(OCC)cc2c1NCc1ccccc1OC | 4.7 µM
42 | C[C@@H]1CN([C@@H](C)CO)C(=O)Cc2cc(NC(=O)Nc3ccc(C(F)(F)F)cc3)ccc2O[C@@H]1CN(C)S(=O)(=O)c1ccc(Cl)cc1 | 1.78 µM
43 | C=CCn1cccc(/C=C/C(=O)c2ccc(C(C)(C)C)cc2)c1=S | 6.19 µM
44 | CCCCOc1ccc(C(=O)C(CN2CCOCC2)c2ccccc2)cc1 (configuration not stated) | 6.76 µM
45 | C=CCNCCCOc1ccc(Cl)cc1C(C)(C)C | 14.9 µM
46 | COc1ccc2c(C)nc(Nc3nc(C)c(C)c(=O)[nH]3)nc2c1 | 7.16 µM
47 | CSc1ccc2c(c1)C(N1CCN(C)CC1)Cc1ccccc1S2 (configuration not stated) | 15.1 µM
48 | NCC(c1ccc(Cl)cc1Cl)c1c[nH]c2ccccc12 (configuration not stated) | 11.9 µM
49 | COc1ccc(C(=O)Nc2cccc(/C=C/c3nc4ccccc4c(=O)[nH]3)c2)cc1 | 3.58 µM
50 | C[C@]12CC[C@H](O)C[C@H]1CC[C@@H]1[C@@H]2C[C@@H](O)[C@]2(C)[C@@H](C3=CC(=O)OC3)CC[C@]12O | 0.654 µM
51 | O=[N+]([O-])c1ccc(Cl)c(/C=N/n2c(C3CCCCC3)n[nH]c2=S)c1 | > 19.5 µM (inactive)
52 | Cc1ccc(Oc2c(C(N)=O)cc([N+](=O)[O-])cc2[N+](=O)[O-])cc1 | 3.84 µM

Row | SMILES | AC50
53 | CC(=O)Oc1ccc2c(=O)c(-c3nc4ccccc4s3)coc2c1 | 9.34 µM
54 | COc1ccc(Cc2nnc(N/N=C/c3ccc(O)cc3O)[nH]c2=O)cc1OC | 8.14 µM
55 | CN(C)c1ccc(-c2cc(O)c3ncccc3c2)cc1 | 12.8 µM
56 | O=C1CC(=C(c2ccccc2)c2ccccc2)C(=O)N1CCCCN1CCN(c2cccc(Cl)c2)CC1 | 2.02 µM
57 | O=C(O)c1cc(O)ccc1NC(=O)C(c1ccccc1)c1ccccc1 | > 19.5 µM (inactive)
58 | CCc1c(C2(O)CCCCC2)[nH]c2c(C(=O)OC)cc(Cl)cc12 | 2.69 µM
59 | COc1cccc(-c2sc3ccccc3c2-c2ccc(OCCN(C)C)cc2)c1 | 3.34 µM
60 | O=C(Nc1ccc(S(=O)(=O)N2CCOCC2)cc1)c1ccc([N+](=O)[O-])o1 | 5.38 µM
61 | COc1cccc(-c2sc3ccc(OC)cc3c2-c2ccc(O)cc2)c1 | 3.7 µM
62 | NC(=O)CC(NC(=O)Cc1cccc2ccccc12)c1ccc(NC2CCCCCCC2)c([N+](=O)[O-])c1 (configuration not stated) | 12 µM
63 | CCCC(=O)NC(=S)Nc1cccc(Cl)c1N1CCCC1 | 4.25 µM
64 | Cc1ccc(C2(c3noc(CN4CCC(c5ccncc5)CC4)n3)CCCC2)cc1 | 2.32 µM
65 | CC(C)N(CCC(=O)c1ccc2ccccc2c1)Cc1ccccc1 | 9.86 µM
66 | CCN(CC)CCOc1ccc(/C(=C(/Cl)c2ccccc2)c2ccccc2)cc1 | 0.992 µM and 2.55 µM
67 | O=c1c2cn[nH]c2nc(SCc2ccccc2F)n1-c1ccc(Br)cc1 | 4.9 µM
68 | CSc1nc2sc3c(c2c(=O)n1CC(C)C)CC(C)(C)OC3 | < 0.16 µM
69 | O=C(COC(=O)c1c2c(nc3ccccc13)/C(=C\c1cccs1)CCC2)Nc1ccccc1 | 2.77 µM
70 | C=C1C(=O)C=C[C@]2(C)C[C@@H]3OC(=O)[C@](C)(O)[C@H]3C[C@@H]12 | 9.76 µM
71 | COc1cc(OC)c2cc(C(=O)N/N=C/c3cccc(OC)c3O)[nH]c2c1 | 6.08 µM
72 | CCCCCCSc1cccc(-c2nc3cc(C)ccn3c2NC2CCCCC2)c1 | 9.77 µM
73 | C=CCC[C@H](Cc1ccc(F)cc1)C(=O)OC[C@@H](Cc1c[nH]c2ccccc12)NC(=O)[C@@H](CC=C)CC(=O)N(CCO)Cc1ccccc1 | 4.34 µM
74 | O=C(Nc1nccs1)c1ccc(COc2ccccc2Br)o1 | 4.84 µM
75 | Cc1ccc(N/N=C/c2ccncc2)cc1 | 7.44 µM
76 | O=C(CSc1nc2nc(-c3cccs3)cc(C(F)(F)F)c2c(=O)[nH]1)Nc1ccc(F)c(F)c1 | 2.56 µM
77 | CCc1ccc([C@@H]2CC=C(C(=O)O)[C@H](c3ccc(Cl)cc3)N2S(=O)(=O)c2ccc(C)cc2)cc1 | 7.1 µM
